Consider 26 compounds from patent US9079870B2, “Thiol mediated/activated prodrugs of sulfur dioxide (SO2) having anti-bacterial activity” (priority 2012, dated 2015).

In brackets after ≈: the same amount, converted by molar mass. Like-named read-outs stand apart in the source and are kept apart here.

Data set [1] has as its system Mycobacterium tuberculosis H37Rv strain. The experiment in a line: Antimycobacterial activity assay (MIC, 7H11 agar). Format: cell-based. The note with it: for inhibition of growth of Mtb at 100 μg mL-1: tested at 100 μg mL-1.
The nature of data set [2]: Pararosaniline-based colorimetric assay for sulfur dioxide. The following applies: detected with pararosaniline-based colorimetric assay; 10 equiv cysteine, pH 7.4. Format: physicochemical.
Data set [3] is described as follows: Cysteine-activated sulfur dioxide release, ion chromatography analysis of sulfite. The following applies: for SO2 yield, 5 min: 5 min after treatment of compound (100 1M) with 10 equiv of cysteine in pH 7.4 phosphate buffer; for % SO2 (30 min): 30 min after commencement of the reaction with thiol, per mole of compound.
The subject of another data set is S. aureus ATCC 29213. The experiment in a line: Antibacterial activity (MIC) against S. aureus. Format: cell-based. An excerpt:
(§1) The antibacterial activity of thiol mediated/activated prodrugs of SO2 i.e. 2,4-dinitrophenylsulfonamide related compounds against the gram positive pathogenic bacteria selected from the group S. aureus, E. feacalis is given herein below Table 2a.

The subject of another data set is E. feacalis ATCC 29212. The experiment in a line: Antibacterial activity (MIC) against E. feacalis. Type of data set: cell-based.
From the text: as §1

Where [4] appears, read: Mycobacterium tuberculosis, H37RV, Table 3, Mtb H37Rv.
Where [5] appears, read: Mycobacterium tuberculosis, H37RV, Table 3, inhibit 99% of bacterial growth, Mtb H37Rv.
The mark [6] stands for this setting: Table 2b, Mtb H37Rv, read-out: MIC.
Where [7] appears, read: 30 min after treatment of compound (100 1M) with 10 equiv of cysteine in pH 7.4 phosphate buffer.
[8] abbreviates: Staphylococcus aureus, ATCC29213, read-out: MIC (μg/mL) S. aureus ATCC 29213.
[9] abbreviates: Enterococcus faecalis, ATCC29212, read-out: MIC (μg/mL) E. feacalis ATCC 29212.
The mark [10] stands for this setting: Mycobacterium tuberculosis, Table 2b, Mtb H37Rv, read-out: MIC.
Where [11] appears, read: Mycobacterium tuberculosis, Table 2b, inhibit 99% of bacterial growth, Mtb H37Rv, read-out: MIC.
Setting [12] is: Mycobacterium tuberculosis, H37RV, Table 2b, Mtb H37Rv.
[13] abbreviates: Mycobacterium tuberculosis, H37RV, Table 2b, inhibit 99% of bacterial growth, Mtb H37Rv.
[14] abbreviates: Mycobacterium tuberculosis, Table 3, Mtb H37Rv, read-out: MIC.
The mark [15] stands for this setting: Mycobacterium tuberculosis, H37RV, 672 h, Table 3, inhibit 99% of bacterial growth, Mtb H37Rv, read-out: MIC.
Setting [16] is: Table 3, 30 min after treatment of compound (100 μM) with 10 equiv of cysteine in pH 7.4 phosphate buffer.

Consider `CNCc1ccccc1` [BnNHMe, N-methylbenzylamine, reference compound], for which the figures for the MIC in data set [1] (setting [4]) and in data set [1] (setting [5]) were more than 250 µM and more than 100 µg/mL, respectively. In addition, the “inhibition of growth of Mtb at 100 μg mL-1” value (“inhibition of growth of Mtb” for short) in data set [1] is given as “a similar observation”. For the same compound, the SO2 source result in data set [2] is given as “no”.

Take `O=[N+]([O-])c1ccc(S(=O)(=O)NCCc2ccccc2)c([N+](=O)[O-])c1` [Compound 14, N-(2-phenylethyl) 2,4-dinitrophenylsulfonamide]: the entries for the “MIC” value in data set [1] and in data set [1] (setting [6]) were 0.4 µg/mL and 1.13 µM, respectively. The “SO2 yield, 5 min” value in data set [3] was found to be 76 µM. Also, the “SO2 yield, 30 min” value in data set [3] (setting [7]) was 100 µM.

Take `O=[N+]([O-])c1ccc(S(=O)(=O)NCc2ccccc2C(F)(F)F)c([N+](=O)[O-])c1` [Compound 5, N-(2-trifluoromethylbenzyl) 2,4-dinitrophenylsulfonamide]: the figures for the “MIC” value in data set [1] and in data set [1] (setting [6]) were 1.56 µg/mL and 3.84 µM, respectively. Also, the “SO2 yield, 5 min” value in data set [3] stood at 81 µM. The “SO2 yield, 30 min” value in data set [3] (setting [7]) was 84 µM.

For the compound `C#CCN(Cc1ccccc1)S(=O)(=O)c1ccc([N+](=O)[O-])cc1[N+](=O)[O-]` [Compound 33, N-benzyl-2,4-dinitro-N-prop-2-yn-1-ylbenzenesulfonamide], the MIC was 4 µg/mL (≈ 10.7 µM) with S. aureus ATCC 29213 (setting [8]) and 8 µg/mL (≈ 21.3 µM) with E. feacalis ATCC 29212 (setting [9]).

Consider `NC(=O)c1cnccn1` [Pyrizinamide, reference compound], for which the MIC in data set [1] (setting [10]) was 50.8 µM; in data set [1] (setting [11]), 6.25 µg/mL.

As to `O=[N+]([O-])c1ccc(S(=O)(=O)N(Cc2ccccc2)c2ccccc2)c([N+](=O)[O-])c1` [Compound 17, (N-benzyl, N-phenyl) 2,4-dinitrophenylsulfonamide], the MIC in data set [1] (setting [6]) came to 4.44 µM; in data set [1] (Table 2b, inhibit 99% of bacterial growth, Mtb H37Rv), 1.56 µg/mL. In addition, in data set [3], the “SO2 yield, 5 min” value was 44 µM. The “SO2 yield, 30 min” value in data set [3] (setting [7]) is 94 µM.

Turning to `C[C@H](NS(=O)(=O)c1ccc([N+](=O)[O-])cc1[N+](=O)[O-])c1ccccc1` [Compound 12, (S) N-(1-phenylethyl)-2,4-dinitrobenzenesulfonamide], the MIC in data set [1] (setting [12]) was determined as 4.44 µM; in data set [1] (setting [13]), 1.56 µg/mL. Moreover, the “SO2 yield, 5 min” value in data set [3] was 80 µM. The “SO2 yield, 30 min” value in data set [3] (setting [7]) is 97 µM.

On to `CC[C@@H](CO)NCCN[C@@H](CC)CO` [Ethambutol, reference compound], for which the MIC in data set [1] (setting [10]) was found to be 7.63 µM; in data set [1] (setting [11]) it was 1.56 µg/mL.

On to `COc1ccccc1NS(=O)(=O)c1ccc([N+](=O)[O-])cc1[N+](=O)[O-]` [Compound 8, N-(2-methoxyphenyl) 2,4-dinitrophenylsulfonamide], for which the MIC came to 8 µg/mL (≈ 22.6 µM) in the data set on S. aureus ATCC 29213 (Staphylococcus aureus, ATCC29213; read-out: MIC (μg/mL) S. aureus ATCC 29213); 16 µg/mL (≈ 45.3 µM) in the data set on E. feacalis ATCC 29212 (Enterococcus faecalis, ATCC29212; read-out: MIC (μg/mL) E. feacalis ATCC 29212); 8.85 µM in data set [1] (setting [12]); 3.13 µg/mL in data set [1] (setting [13]). Also, in data set [3], the “SO2 yield, 5 min” value worked out at 57 µM. In addition, the “SO2 yield, 30 min” value in data set [3] (setting [7]) stood at 86 µM.

For the compound `NNC(=O)c1ccncc1` [Isoniazide, reference compound], the MIC amounted to 0.05 µg/mL in data set [1] (setting [11]); 0.37 µM in data set [1] (setting [14]); 0.37 µM in data set [1] (setting [6]); 0.05 µg/mL in data set [1] (Table 3, inhibit 99% of bacterial growth, Mtb H37Rv). Moreover, the SO2 source result in data set [2] was “no”.

Regarding `O=[N+]([O-])c1ccc(S(=O)(=O)NCc2ccc(C(F)(F)F)cc2)c([N+](=O)[O-])c1` [Compound 4, N-(4-trifluoromethylbenzyl) 2,4-dinitrophenylsulfonamide], the “MIC” value turned out to be 0.4 µg/mL in data set [1] and 0.98 µM in data set [1] (setting [6]). In addition, in data set [3], the “SO2 yield, 5 min” value is 79 µM. Further, in data set [3] (setting [7]), the “SO2 yield, 30 min” value was found to be 75 µM.

As to `O=S([O-])[O-].[Na+].[Na+]` [sodium sulfite, reference compound], the “inhibition of growth of Mtb” value in data set [1] was “inactive against Mtb”.

Turning to `COc1ccccc1N(CCCN(Cc1ccccc1)S(=O)(=O)c1ccc([N+](=O)[O-])cc1[N+](=O)[O-])S(=O)(=O)c1ccc([N+](=O)[O-])cc1[N+](=O)[O-]` [Compound 35, N-benzyl-N-(3-(N-(2-methoxyphenyl)-2,4-dinitrophenylsulfonamido)propyl)-2,4-dinitrobenzenesulfonamide], the “% SO2 (30 min)” value in data set [3] was 161%.

On to `COC(=O)C1CCCN1S(=O)(=O)c1ccc([N+](=O)[O-])cc1[N+](=O)[O-]` (stereo not drawn) [Compound 22, Methyl 1[(2,4-dinitrophenyl)sulfonyl]pyrrolidine-2-carboxylate], for which the MIC is not above 25 µg/mL in data set [1] (setting [15]), 35 µM in data set [1] (setting [4]) and 12.5 µg/mL in data set [1] (setting [5]). Further, the SO2 source result in data set [2] is recorded as “yes”. Further, the “SO2 yield, 30 min” value in data set [3] (setting [16]) is 83 µM.

`CN(c1ccccc1)S(=O)(=O)c1ccc([N+](=O)[O-])cc1[N+](=O)[O-]` [Compound 18, (N-methyl, N-phenyl) 2,4-dinitrophenylsulfonamide]: the results for the “MIC” value in data set [1] and in data set [1] (setting [6]) were 0.78 µg/mL and 2.31 µM, respectively. In addition, the “SO2 yield, 5 min” value in data set [3] came out at 89 µM. Also, the “SO2 yield, 30 min” value in data set [3] (setting [7]) came out at 94 µM.

For `NCc1ccccc1` [BnNH2, Benzylamine, reference compound], the MIC in data set [1] (setting [14]) is more than 250 µM; in data set [1] (Mycobacterium tuberculosis, Table 3, inhibit 99% of bacterial growth, Mtb H37Rv, read-out: MIC), more than 100 µg/mL. Moreover, the “inhibition of growth of Mtb” value in data set [1] is reported as “did not show a significant inhibition of growth of Mtb”. Also, in data set [2], the SO2 source result is reported as “no”.

Take `O=[N+]([O-])c1ccc(S(=O)(=O)N(CCc2ccccc2)Cc2ccccc2)c([N+](=O)[O-])c1` [Compound 20, N-benzyl, N-(2-phenylethyl) 2,4-dinitrophenylsulfonamide]: the “MIC” value in data set [1] came out at 3.13 µg/mL; in data set [1] (setting [6]), 7.09 µM. Moreover, the “SO2 yield, 5 min” value in data set [3] was 37 µM. The “SO2 yield, 30 min” value in data set [3] (setting [7]) amounted to 75 µM.

Regarding `O=[N+]([O-])c1cccc(S(=O)(=O)N(CCCN(Cc2ccccc2)S(=O)(=O)c2ccc([N+](=O)[O-])cc2[N+](=O)[O-])Cc2ccccc2)c1` [Compound 41, N-benzyl-N-(3-(N-benzyl-3-nitrophenylsulfonamido)propyl)-2,4-dinitrobenzenesulfon-amide], the “% SO2 (30 min)” value in data set [3] is 99%.

On to `C[C@@H](NS(=O)(=O)c1ccc([N+](=O)[O-])cc1[N+](=O)[O-])c1ccccc1` [Compound 13, (R) N-(1-phenylethyl)-2,4-dinitrobenzenesulfonamide], for which the results for the MIC in data set [1] (setting [12]) and in data set [1] (setting [13]) were 4.44 µM and 1.56 µg/mL, respectively. For the same compound, the “SO2 yield, 5 min” value in data set [3] came to 78 µM. The “SO2 yield, 30 min” value in data set [3] (setting [7]) was 94 µM.

Regarding `O=[N+]([O-])c1ccc(S(=O)(=O)NCc2ccc(Cl)cc2)c([N+](=O)[O-])c1` [Compound 3, N-(4-chlorobenzyl)2,4-dinitrophenylsulfonamide], the MIC in data set [1] (setting [12]) was 1.07 µM; in data set [1] (setting [13]) it was 0.4 µg/mL. In data set [3], the “SO2 yield, 5 min” value worked out at 77 µM. In addition, the “SO2 yield, 30 min” value in data set [3] (setting [7]) stood at 96 µM.

As to `C=CCN(CC=C)S(=O)(=O)c1ccc([N+](=O)[O-])cc1[N+](=O)[O-]` [Compound 32, N,N-diallyl-2,4-dinitrobenzenesulfonamide], the figures for the MIC in the data set on S. aureus ATCC 29213 (setting [8]) and in the data set on E. feacalis ATCC 29212 (setting [9]) were 8 µg/mL (≈ 24.4 µM) and more than 16 µg/mL, respectively.

`CN(CCc1ccccc1)S(=O)(=O)c1ccc([N+](=O)[O-])cc1[N+](=O)[O-]` [Compound 19, N-methyl, N-(2-phenylethyl) 2,4-dinitrophenylsulfonamide]: the “MIC” value in data set [1] amounted to 0.78 µg/mL; in data set [1] (setting [6]) it was 2.13 µM. In addition, the “SO2 yield, 5 min” value in data set [3] was 79 µM. The “SO2 yield, 30 min” value in data set [3] (setting [7]) worked out at 84 µM.

For the compound `COC(=O)C(C)NS(=O)(=O)c1ccc([N+](=O)[O-])cc1[N+](=O)[O-]` (stereo not drawn) [Compound 21, Methyl 2-{[(2,4-dinitrophenyl)sulfonyl]amino}propanoate], the MIC in data set [1] (setting [15]) is not above 25 µg/mL; in data set [1] (setting [4]), 18.7 µM; in data set [1] (setting [5]) it was 6.25 µg/mL. The SO2 source result in data set [2] is recorded as “yes”. Moreover, the “SO2 yield, 30 min” value in data set [3] (setting [16]) was 93 µM.

For `O=[N+]([O-])c1ccc(S(=O)(=O)N(CCCN(Cc2ccccc2)S(=O)(=O)c2ccc([N+](=O)[O-])cc2[N+](=O)[O-])Cc2ccccc2)cc1` [Compound 42, N-benzyl-N-(3-(N-benzyl-4-nitrophenylsulfonamido)propyl)-2,4-dinitrobenzenesulfon-amide], in data set [3], the “% SO2 (30 min)” value is recorded as 98%.

In the case of `CN1CCN(S(=O)(=O)c2ccc([N+](=O)[O-])cc2[N+](=O)[O-])CC1` [Compound 25, 1-[(2,4-dinitrophenyl)sulfonyl]-4-methylpiperazine], the MIC in data set [1] (setting [15]) is not above 25 µg/mL; in data set [1] (setting [4]), 38 µM; in data set [1] (setting [5]) it was 12.5 µg/mL. For the same compound, the SO2 source entry in data set [2] was “yes”. Moreover, the “SO2 yield, 30 min” value in data set [3] (setting [16]) came to 88 µM.

Turning to `O=[N+]([O-])c1ccc(S(=O)(=O)N(CCCN(Cc2ccccc2)S(=O)(=O)c2ccccc2[N+](=O)[O-])Cc2ccccc2)c([N+](=O)[O-])c1` [Compound 40, N-benzyl-N-(3-(N-benzyl-2-nitrophenylsulfonamido)propyl)-2,4-dinitrobenzenesulfon-amide], the “% SO2 (30 min)” value in data set [3] amounted to 88%.
